Blank lines part the entries; values can stand above or below the molecule they belong to.
Tests used:
human mGlu5 (hmGlu5) [1] = biological target: T1, human mGlu5 (hmGlu5) (Homo sapiens, UniProt P41594); test: IP1 accumulation; format: cell-based
human mGlu5 (hmGlu5) [2] = biological target: T1, human mGlu5 (hmGlu5); test: whole-cell [3H]methoxy-PEPy inhibition binding; format: cell-based
human mGlu5 (hmGlu5) [3] = biological target: T1, human mGlu5 (hmGlu5); test: whole-cell [3H]methoxy-PEPy inhibition binding; format: cell-based; remark: listed apart in the source
human mGlu5 (hmGlu5) [4] = biological target: T1, human mGlu5 (hmGlu5); test: cell-based; set-up: species or system HEK293A; conditions: HEK293-A, read-out: iCa2+ human mGlu5 Emax
human mGlu5 (hmGlu5) [5] = biological target: T1, human mGlu5 (hmGlu5); test: iCa2+ mobilisation; format: cell-based
human mGlu5 (hmGlu5) [6] = biological target: T1, human mGlu5 (hmGlu5); test: IP1 accumulation; format: cell-based; remark: listed apart in the source
human mGlu5 (hmGlu5) [7] = biological target: T1, human mGlu5 (hmGlu5); test: whole-cell saturation radioligand binding; format: cell-based

T1 sequence (P41594 21-1180 isoform P41594-2): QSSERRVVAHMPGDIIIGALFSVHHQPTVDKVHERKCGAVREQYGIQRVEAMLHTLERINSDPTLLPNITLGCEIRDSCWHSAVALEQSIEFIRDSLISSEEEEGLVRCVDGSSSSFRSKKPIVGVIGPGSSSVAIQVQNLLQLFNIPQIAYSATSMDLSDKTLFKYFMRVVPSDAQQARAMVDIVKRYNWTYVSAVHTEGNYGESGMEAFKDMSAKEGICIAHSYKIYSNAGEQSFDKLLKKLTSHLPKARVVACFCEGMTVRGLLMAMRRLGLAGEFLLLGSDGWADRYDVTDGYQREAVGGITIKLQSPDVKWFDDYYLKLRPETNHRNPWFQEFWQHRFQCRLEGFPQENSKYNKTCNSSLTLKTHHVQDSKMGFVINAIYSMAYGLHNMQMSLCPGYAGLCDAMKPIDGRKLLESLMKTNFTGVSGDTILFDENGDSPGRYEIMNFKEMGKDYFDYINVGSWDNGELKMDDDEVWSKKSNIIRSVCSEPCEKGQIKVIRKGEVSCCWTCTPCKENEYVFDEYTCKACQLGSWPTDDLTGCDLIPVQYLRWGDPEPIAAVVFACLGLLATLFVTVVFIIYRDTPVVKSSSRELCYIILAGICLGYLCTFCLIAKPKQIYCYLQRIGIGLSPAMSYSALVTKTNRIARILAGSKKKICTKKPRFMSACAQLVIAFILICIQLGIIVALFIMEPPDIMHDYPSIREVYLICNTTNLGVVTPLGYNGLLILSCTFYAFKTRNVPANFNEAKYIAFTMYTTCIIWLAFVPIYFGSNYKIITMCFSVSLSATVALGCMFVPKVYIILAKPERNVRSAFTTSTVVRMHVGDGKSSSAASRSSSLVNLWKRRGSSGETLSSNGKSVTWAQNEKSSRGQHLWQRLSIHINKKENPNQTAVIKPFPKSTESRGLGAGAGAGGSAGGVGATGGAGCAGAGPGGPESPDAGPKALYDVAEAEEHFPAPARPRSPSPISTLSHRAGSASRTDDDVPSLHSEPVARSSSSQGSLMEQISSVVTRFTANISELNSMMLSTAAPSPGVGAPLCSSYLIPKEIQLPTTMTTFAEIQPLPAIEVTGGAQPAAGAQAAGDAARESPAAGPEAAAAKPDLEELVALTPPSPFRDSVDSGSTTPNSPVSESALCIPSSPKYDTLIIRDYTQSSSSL

Structure (SMILES): O=C(c1ccc(F)cc1)N1CCc2nc(COc3ccccc3)oc2C1 [VU0409551, (4-fluorophenyl)(2-(phenoxymethyl)-6,7-dihydrooxazolo[5,4-c]pyridin-5(4H)-yl)methanone]
- EC50 (human mGlu5 (hmGlu5) [1]): 661 nM
- Ki (human mGlu5 (hmGlu5) [2]): 1410 nM

Structure (SMILES): CCCCOc1ccc(C(=O)Nc2ccc(F)cc2F)cc1 [VU0357121, 4-butoxy-N-(2,4-difluorophenyl)benzamide]
- Kd (human mGlu5 (hmGlu5) [3]): 537 nM

Structure (SMILES): N#Cc1cc(F)cc(C(=O)Nc2cccc(Cl)c2F)c1 [VU0366248, N-(3-chloro-2-fluorophenyl)-3-cyano-5-fluorobenzamide]
- Kd (human mGlu5 (hmGlu5) [3]): 224 nM
- IC50 (human mGlu5 (hmGlu5) [6]): 115 nM

Structure (SMILES): O=C(COCc1ccc(F)cc1)N1CCN(c2ccc(F)cc2F)CC1 [DPFE, 1-(4-(2,4-difluorophenyl)piperazin-1-yl)-2-((4-fluorobenzyl)oxy)ethanone]
- Ki (human mGlu5 (hmGlu5) [2]): 7410 nM

Structure (SMILES): N[C@H](C(=O)O)c1cc(O)cc(O)c1 [DHPG, (S)-3,5-dihydroxyphenylglycine]
- Emax (human mGlu5 (hmGlu5) [4]): 80.3 ± 2.5%
- EC50 (human mGlu5 (hmGlu5) [5]): 1100 nM

Second part, the molecule after the results:

- Kd (human mGlu5 (hmGlu5) [3]): 35.5 nM
- Emax (human mGlu5 (hmGlu5) [4]): 69.5 ± 4.5%
- EC50 (human mGlu5 (hmGlu5) [5]): 275 nM
Structure (SMILES): C[C@@H](NC(=O)c1ccc(C#Cc2cccc(F)c2)cn1)C(C)(C)O [VU0424465, (R)-5-((3-fluorophenyl)ethynyl)-N-(3-hydroxy-3-methylbutan-2-yl)picolinamide]

- Emax (human mGlu5 (hmGlu5) [4]): 103 ± 3.9%
Structure (SMILES): N[C@@H](CCC(=O)O)C(=O)O [glutamate]

- Kd (human mGlu5 (hmGlu5) [3]): 81.3 nM
- IC50 (human mGlu5 (hmGlu5) [6]): 55 nM
Structure (SMILES): CN1CC(=O)N=C1NC(=O)Nc1cccc(Cl)c1 [fenobam, N-(3-chlorophenyl)-3-[(2e)-1-methyl-4-oxoimidazo-lidin-2-ylidene]urea]

- Kd (human mGlu5 (hmGlu5) [7]): 4.57 nM
Structure (SMILES): COc1cncc(C#Cc2ccccn2)c1 [[3H]methoxy-PEPy]

From article doi:10.1101/2024.12.05.627101v1 (biorxiv, 2024)
